This note sets out measurements from patent publication US20110060009A1, “Hydroxamate-Based Inhibitors of Deacetylases” (NOVARTIS AG, priority 2009, published 2011).

Experiment [1] deals with T1, HDAC-1 (Homo sapiens, UniProt Q13547).
T1 construct: made in house; host or cells: Sf9 or Sf21 insect cells (baculovirus, donor vector pFB-GSTX3)
Description: HDAC Inhibition Assay (purified GST-HDAC protein). Format: biochemical. The source says: The baculovirus donor vector pFB-GSTX3 is used to generate a recombinant baculovirus that expresses the HDAC polypeptide. Transfer vectors containing the HDAC coding region are transfected into the DH10Bac cell line (GIBCO) and plated on selective agar plates. Colonies without insertion of the fusion sequence into the viral genome (carried by the bacteria) are blue. Single, white colonies are picked and viral DNAs (bacmid) are isolated from the bacteria by standard plasmid purification procedures. Sf9 cells or Sf21 (American Type Culture Collection) cells are then transfected in […] flasks with the viral DNA using Cellfectin reagent.
Virus-containing media is collected from the transfected cell culture and used for infection to increase its titer. Virus-containing media obtained after two rounds of infection is used for large-scale protein expression. For large-scale protein expression 100 cm^2 round tissue culture plates are seeded with 5×10^7 cells/plate and infected with 1 mL of virus-containing media (at an approximately MOI of 5). After 3 days, the cells are scraped off the plate and centrifuged at 500 rpm for 5 minutes. Cell pellets from 10-20, 100 cm^2 plates, are re-suspended in 50 mL of ice-cold lysis buffer (25 mM tris-HCl, pH 7.5, 2 mM EDTA, 1% NP-40, 1 mM DTT, 1 mM P MSF). The cells are stirred on ice for 15 minutes and then centrifuged at 5,000 rpms for 20 minutes.
The centrifuged cell lysate is loaded onto a 2 mL glutathione-sepharose column (Pharmacia) and is washed thrice with 10 mL of 25 mM tris-HCl, pH 7.5, 2 mM EDTA, 1 mM DTT, 200 mM NaCl. The GST-tagged proteins are then eluted by 10 applications (1 mL each) of 25 mM tris-HCl, pH 7.5, 10 mM reduced-glutathione, 100 mM NaCl, 1 mM DTT, 10% glycerol and stored at −70° C.
HDAC assays with purified GST-HDAC protein are carried out in a final volume of 30 μL containing 15 ng of GST-HDAC protein, 20 mM tris-HCl, pH 7.5, 1 mM MnCl2, 10 mM MgCl2, 1 mM DTT, 3 μg/mL poly(Glu,Tyr) 4:1, 1% DMSO, 2.0 μM ATP (γ-[^33P]-ATP 0.1 μCi). The activity is assayed in the presence or absence of inhibitors. The assay is carried out in 96-well plates at ambient temperature for 15 minutes under conditions described below and terminated by the addition of 20 μL of 125 mM EDTA. Subsequently, 40 μL of the reaction mixture are transferred onto EMMOBILON-PVDF membrane (Millipore) previously soaked for 5 minutes with methanol, rinsed with water, then soaked for 5 minutes with 0.5% H3PO4 and mounted on vacuum manifold with disconnected vacuum source. After spotting all samples, a vacuum is connected and each well-rinsed with 200 μL 0.5% H3PO4. Membranes are removed and washed four times on a shaker with 1.0% H3PO4, once with ethanol. Membranes are counted after drying at ambient temperature, mounting in Packard TopCount 96-well frame, and addition of 10 μL/well of MICROSCINT™ (Packard). IC50 values are calculated by linear regression analysis of the percentage inhibition of each compound in duplicate, at 4 concentrations (usually 0.01, 0.1, 1 and 10 μM).
• Input: 3×4 μL stopped assay on IMMOBILON membrane, not washed • Background (3 wells): assay with H2O instead of enzyme • Positive control (4 wells): 3% DMSO instead of compound • Bath control (1 well): no reaction mix
IC50 values are calculated by logarithmic regression analysis of the percentage inhibition of each compound at 4 concentrations (usually 3- or 10-fold dilution series starting at 10 μM). In each experiment, the actual inhibition by reference compound is used for normalization of IC50 values to the basis of an average value of the reference inhibitor:
Normalized IC50=measured IC50 average ref. IC50/measured ref. IC50

For experiment [2], the system named is HCT116. Description: HCT116 IC50 (Table 2, no method described). It is filed as cell-based. The note with it: Homo sapiens, HCT-116.

What is called IC50 is the midpoint of a concentration-inhibition curve. Lower therefore signals greater potency.

T1 sequence (Q13547 whole entry, species assumed): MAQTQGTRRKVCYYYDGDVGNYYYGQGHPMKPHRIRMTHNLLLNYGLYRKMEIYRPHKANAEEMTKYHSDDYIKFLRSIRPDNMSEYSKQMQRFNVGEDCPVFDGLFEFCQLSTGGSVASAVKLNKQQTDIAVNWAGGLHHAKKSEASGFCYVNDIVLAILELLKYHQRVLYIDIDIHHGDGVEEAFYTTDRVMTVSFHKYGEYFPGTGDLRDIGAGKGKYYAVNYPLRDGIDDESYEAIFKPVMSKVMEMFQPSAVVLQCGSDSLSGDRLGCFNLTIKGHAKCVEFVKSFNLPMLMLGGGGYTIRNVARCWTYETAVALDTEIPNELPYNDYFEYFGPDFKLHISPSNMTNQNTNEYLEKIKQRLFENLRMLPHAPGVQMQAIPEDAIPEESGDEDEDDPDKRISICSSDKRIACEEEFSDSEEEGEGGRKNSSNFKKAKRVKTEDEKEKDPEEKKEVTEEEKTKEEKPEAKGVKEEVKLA

With `O=C(/C=C/c1ccc(CN2CCC[C@@H]2Cn2cccn2)cc1)NO` [Cpd 49, (E)-N-Hydroxy-3-[4-((R)-2-pyrazol-1-ylmethyl-pyrrolidin-1-ylmethyl)-phenyl]-acrylamide], the IC50 was 15 nM in experiment [1] and 26 nM in experiment [2].
For `O=C(/C=C/c1ccc(CN2CCC[C@@H]2C(=O)N2CCc3ccccc32)cc1)NO` [Cpd 17, (E)-3-{4-[(R)-2-(2,3-Dihydro-indole-1-carbonyl)-pyrrolidin-1-ylmethyl]-phenyl}-N-hydroxy-acrylamide], in that order: 210 nM and 950 nM.
For `Cc1cc(C)n(C[C@H]2CCCN2Cc2ccc(/C=C/C(=O)NO)cc2)n1` [Cpd 50, (E)-3-{4-[(R)-2-(3,5-Dimethyl-pyrazol-1-ylmethyl)-pyrrolidin-1-ylmethyl]-phenyl}-N-hydroxy-acrylamide], in that order: 3 nM and 4 nM.
With `Cc1[nH]c2ccccc2c1C[C@H]1CCCN1Cc1ccc(/C=C/C(=O)NO)cc1` [Cpd 4, (E)-N-Hydroxy-3-{4-[(R)-2-(2-methyl-1H-indol-3-ylmethyl)-pyrrolidin-1-ylmethyl]-phenyl}-acrylamide], the IC50 in experiment [1] worked out at 0.65 nM; in experiment [2] it was 0.4 nM.
Taken in the same sequence, the figures for `O=C(/C=C/c1ccc(CN2CCC[C@@H]2C(=O)c2c[nH]c3ccccc23)cc1)NO` [Cpd 12, (E)-N-Hydroxy-3-{4-[(R)-2-(1H-indole-3-carbonyl)-pyrrolidin-1-ylmethyl]-phenyl}-acrylamide] were 38 nM and 520 nM.
For `O=C(/C=C/c1ccc(CN2CCC[C@H]2C(=O)N2CCc3ccccc32)cc1)NO` [Cpd 18, (E)-3-{4-[(S)-2-(2,3-Dihydro-indole-1-carbonyl)-pyrrolidin-1-ylmethyl]-phenyl}-N-hydroxy-acrylamide], in that order: 350 nM and 7000 nM.
Taken in the same sequence, the figures for `O=C(/C=C/c1ccc(CN2CCC[C@H]2Cc2c[nH]c3ccccc23)cc1)NO` [Cpd 1, (E)-N-Hydroxy-3-{4-[(S)-2-(1H-indol-3-ylmethyl)-pyrrolidin-1-ylmethyl]-phenyl}-acrylamide] were 10 nM and 100 nM.
Turning to `Cc1[nH]c2ccccc2c1C[C@H]1C[C@H](O)CN1Cc1ccc(/C=C/C(=O)NO)cc1` [Cpd 21, (E)-N-Hydroxy-3-{4-[(2S,4S)-4-hydroxy-2-(2-methyl-1H-indol-3-ylmethyl)-pyrrolidin-l-ylmethyl]-phenyl}-acrylamide], the IC50 in experiment [1] amounted to 0.7 nM; in experiment [2], 1 nM.
Taken in the same sequence, the figures for `Cc1[nH]c2ccccc2c1C[C@H]1C[C@@H](O)CN1Cc1ccc(/C=C/C(=O)NO)cc1` [Cpd 20, (E)-N-Hydroxy-3-{4-[(2S,4R)-4-hydroxy-2-(2-methyl-1H-indol-3-ylmethyl)-pyrrolidin-1-ylmethyl]-phenyl}-acrylamide] were 0.6 nM and 1 nM.
For `O=C(/C=C/c1ccc(CN2CCC[C@@H]2Cn2nc(C(F)(F)F)cc2C(F)(F)F)cc1)NO` [Cpd 51, (E)-3-{4-[(R)-2-(3,5-Bis-trifluoromethyl-pyrazol-1-ylmethyl)-pyrrolidin-1-ylmethyl]-phenyl}-N-hydroxy-acrylamide], in that order: 39 nM and 31 nM.
For `CO[C@@H]1C[C@H](Cc2c(C)[nH]c3ccccc23)N(Cc2ccc(/C=C/C(=O)NO)cc2)C1` [Cpd 24, (E)-N-Hydroxy-3-{4-[(2S,4R)-4-methoxy-2-(2-methyl-1H-indol-3-ylmethyl)-pyrrolidin-1-ylmethyl]-phenyl}-acrylamide], in that order: 1.2 nM and 0.5 nM.
As for `Cc1[nH]c2ccccc2c1C[C@H]1CCCN1Cc1ccc(/C=C/C(=O)NO)cc1F` [Cpd 10, (E)-3-{3-Fluoro-4-[(R)-2-(2-methyl-1H-indol-3-ylmethyl)-pyrrolidin-1-ylmethyl]-phenyl}-N-hydroxy-acrylamide], the values for the IC50 in experiment [1] and in experiment [2] were 0.7 nM and 0.6 nM, respectively.
